This is an account of results in PubChem BioAssay (NCI).

Where “and” joins values, the source holds several entries; their conditions need not be identical. Equal values may be shown once.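 1) Cells in 96-well plates. 2) Compound, 48 h, 5 concentrations. 3) Linear interpolation between surrounding doses. 4) Unreached endpoint = highest concentration. GI50 = concentration required for 50% inhibition of growth. TGI: concentration producing complete growth inhibition.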

Some test systems named below: A498 renal; CAKI-1 renal; HCC-2998 colon; M14 melanoma; MCF7 breast; MOLT-4 leukemia; NCI/ADR-RES ovarian; SK-MEL-28 melanoma; UACC-257 melanoma; UACC-62 melanoma.
What all share (assay): NCI tumour cell line growth inhibition, 48 h

As for `CCOc1ccn(-c2ccc(F)cc2)c(=O)c1C(=O)Nc1ccc(Oc2ccnc(N)c2Cl)c(F)c1`, the GI50 in the test with A498 renal is 1.6 µM; in the test with CAKI-1 renal it was 7.57 µM; in the test with HCC-2998 colon, 38.5 µM; with M14 melanoma it was 3.74 µM; with MCF7 breast, 7.89 µM; with MOLT-4 leukemia it was 5.78 µM. Moreover, the GI50 is 13.6 µM in the test with NCI/ADR-RES ovarian, 6.7 µM with SK-MEL-28 melanoma, 5.99 µM in the test with UACC-257 melanoma and 2.83 µM in the test with UACC-62 melanoma. The TGI is 12.2 µM in the test with A498 renal; 56.4 µM with CAKI-1 renal; greater than 100 µM in the test with HCC-2998 colon; 16 µM in the test with M14 melanoma; greater than 100 µM in the test with MCF7 breast; 59 µM with MOLT-4 leukemia. In addition, the TGI in the test with NCI/ADR-RES ovarian is greater than 65.7 µM; in the test on SK-MEL-28 melanoma, 59.1 µM; in the test with UACC-257 melanoma, 43.4 µM; in the test on UACC-62 melanoma, 18.5 µM.
Regarding `COc1cc(C(=O)c2cnc(-c3cccc4[nH]ccc34)[nH]2)cc(OC)c1OC`, the GI50 with A498 renal is 0.049 µM and < 0.01 µM; with CAKI-1 renal, less than 0.01 µM; in the test on M14 melanoma it was 0.0505 µM and < 0.01 µM; with MCF7 breast, 0.059 µM and < 0.01 µM; in the test on NCI/ADR-RES ovarian it was 0.0729 µM and < 0.01 µM; in the test on SK-MEL-28 melanoma, less than 0.01 µM. The GI50 in the test on UACC-257 melanoma was 11.9 µM; with UACC-62 melanoma it was 0.0509 µM and < 0.01 µM. The TGI in the test with CAKI-1 renal is greater than 100 µM; in the test with HCC-2998 colon, 59.3 µM; in the test on MCF7 breast, greater than 100 µM; with MOLT-4 leukemia, greater than 100 µM; in the test with NCI/ADR-RES ovarian, greater than 100 µM; with SK-MEL-28 melanoma it was greater than 100 µM. Further, the TGI in the test with UACC-257 melanoma was greater than 100 µM; in the test with UACC-62 melanoma it was 93.6 µM.
In the case of `CC[C@@H](C)/C=C(C)/C=C/C(=O)c1c(O)c(-c2ccc(O)cc2)cn(O)c1=O`, the GI50 in the test with A498 renal is 0.479 µM; in the test on CAKI-1 renal, 0.29 µM; in the test with HCC-2998 colon it was 2.31 µM; in the test with M14 melanoma, 0.284 µM; with MCF7 breast, 0.365 µM; in the test on MOLT-4 leukemia it was 0.31 µM. In addition, the GI50 with NCI/ADR-RES ovarian was 0.327 µM; with SK-MEL-28 melanoma, 0.674 µM; in the test with UACC-257 melanoma, 0.317 µM; in the test with UACC-62 melanoma, 0.266 µM. Further, the TGI is 13.1 µM in the test on A498 renal; 1.55 µM in the test on CAKI-1 renal; 13.1 µM in the test with HCC-2998 colon; 13.2 µM in the test with M14 melanoma; 16.5 µM in the test on MCF7 breast; 15.7 µM with MOLT-4 leukemia. The TGI in the test with NCI/ADR-RES ovarian turned out to be 10.7 µM; in the test on SK-MEL-28 melanoma, 19.2 µM; in the test with UACC-257 melanoma it was 6.95 µM; with UACC-62 melanoma it was 0.966 µM.
As for `CC1=CC(C)(C)NN1C1=NS(=O)(=O)c2ccccc2N1C`, the TGI in the test on A498 renal, in the test with CAKI-1 renal, with HCC-2998 colon, with M14 melanoma, in the test with MCF7 breast and in the test with MOLT-4 leukemia was greater than 100 µM each time. For the same molecule, the TGI in the test on NCI/ADR-RES ovarian, in the test on SK-MEL-28 melanoma, with UACC-257 melanoma and in the test with UACC-62 melanoma was greater than 100 µM in each case.
In the case of `O=C1O/C(=C/c2ccccc2)C(c2ccccc2)=C1O`, the TGI in the test with A498 renal was 85.6 µM; in the test with CAKI-1 renal it was greater than 100 µM; with HCC-2998 colon, greater than 100 µM; in the test on M14 melanoma, greater than 100 µM; in the test on MCF7 breast, greater than 100 µM; in the test with MOLT-4 leukemia, greater than 100 µM. Besides, the TGI with NCI/ADR-RES ovarian was greater than 100 µM; in the test on SK-MEL-28 melanoma, greater than 100 µM; in the test on UACC-257 melanoma, greater than 100 µM; in the test with UACC-62 melanoma it was 33.8 µM.
Regarding `COC(=O)c1oc2c(C(=O)/C=C/c3ccc(OC)cc3)c(OCCN(C)C)ccc2c1C`, the GI50 with A498 renal is 10.1 µM; in the test on CAKI-1 renal, 6.95 µM; in the test on HCC-2998 colon it was 10.2 µM; in the test with M14 melanoma, 10.6 µM; with MCF7 breast it was 2.98 µM; in the test with MOLT-4 leukemia, 2.59 µM. The GI50 in the test on NCI/ADR-RES ovarian was 10.3 µM; in the test on SK-MEL-28 melanoma, 7.73 µM; in the test on UACC-257 melanoma, 14.1 µM; with UACC-62 melanoma it was 12.3 µM. The TGI in the test with A498 renal amounted to 22.6 µM; with CAKI-1 renal, 20.2 µM; with HCC-2998 colon, 24.6 µM; in the test with M14 melanoma it was 25.5 µM; in the test on MCF7 breast it was 9.89 µM; in the test with MOLT-4 leukemia, 7.47 µM. Further, the TGI was determined as 28 µM with NCI/ADR-RES ovarian, 20.9 µM in the test with SK-MEL-28 melanoma, 29.2 µM with UACC-257 melanoma and 27.1 µM in the test with UACC-62 melanoma.
As to `C=CCC(N[C@@H](CO)c1ccccc1)c1cn(C(=O)OCC)c2ccccc12` (stereo partly specified), the GI50 in the test on A498 renal is 25.9 µM; in the test with CAKI-1 renal it was 13.6 µM; in the test with HCC-2998 colon it was 16.3 µM; in the test on M14 melanoma it was 18.1 µM; with MCF7 breast it was 29.4 µM; with MOLT-4 leukemia, 15.5 µM. In addition, the GI50 with NCI/ADR-RES ovarian was 18.9 µM; in the test on SK-MEL-28 melanoma it was 34.1 µM; with UACC-257 melanoma, 22.9 µM; with UACC-62 melanoma it was 30.4 µM. Further, the TGI in the test on A498 renal is 61.6 µM; with CAKI-1 renal it was 53.5 µM; with HCC-2998 colon it was 31.8 µM; in the test with M14 melanoma, 34.4 µM; in the test with MCF7 breast, greater than 100 µM; in the test with MOLT-4 leukemia, greater than 100 µM. In addition, the TGI is 55.5 µM with NCI/ADR-RES ovarian, greater than 100 µM with SK-MEL-28 melanoma, 66 µM in the test on UACC-257 melanoma and 98.4 µM in the test with UACC-62 melanoma.
